Like-named read-outs stand apart in the source and are kept apart here. Where a SMILES comes first, the peptide text is derived from it. Bridges are numbered along the chain shown (N, C = ends). [ ]: non-standard residue; d: D form. The star is where a group is joined. Decanoyl(3R-OH) = CCCCCCC[C@@H](O)CC(=O)*; dDab = NCC[C@@H](N)C(=O)O; Dab = NCC[C@H](N)C(=O)O
Experiments:
C. albicans = test: Broth microdilution MIC; format: cell-based, Candida albicans; details: ATCC 90028; CLSI M27-A2, YNB medium, 35°C, no visible growth after 48 h; triplicate
Experimental: (§1) A broth microdilution assay was initially used to characterize the antifungal activity of the cyclic lipopeptides ([39], [40]). […] common pathogenic yeasts (C. albicans, C. glabrata, C. parapsilosis, C. neoformans, and C. gattii) and one pathogenic mold (A. fumigatus) were tested to determine the MIC for each compound (Table 1) using broth microdilution. […] The only structural difference between these molecules is the presence of a phenylalanine residue at position 6 in PMB; in PME a D-leucine is present at this location (Fig. 1).
(§2) Fungal strains were stored in 15% glycerol at −80°C until use. The fungal strains used were H99 (C. neoformans type strain) ([55]), cap59Δ (an acapsular H99 mutant) ([56]), ATCC 90113 (C. neoformans), MMRL 2651 (C. gattii), ATCC 90028 (Candida albicans), ATCC 90030 (Candida glabrata), ATCC 22019 (Candida parapsilosis), and ATCC MYA 3626 (Aspergillus fumigatus). Yeasts were cultured in liquid (1% yeast extract, 2% Bacto peptone, 2% glucose) or solid (additional 2% agar) yeast extract-peptone-dextrose (YPD) media at 30°C and maintained at 4°C for no longer than 2 weeks. A. fumigatus was prepared on potato dextrose medium at 30°C and maintained at 4°C for no longer than 2 weeks.
(§3) […] The final inoculum concentration was 0.4 × 10^4 to 5 × 10^4 cells/ml, with incubation at 35°C for 48 h. […] All assays were completed in triplicate. […]

C. parapsilosis = test: Broth microdilution MIC; format: cell-based, Candida parapsilosis; details: ATCC 22019; CLSI M27-A2, YNB medium, 35°C, no visible growth after 48 h; triplicate
Experimental: as §1, §2, §3

A. fumigatus = test: Broth microdilution MIC (CLSI M38-A2); format: cell-based, Aspergillus fumigatus; details: ATCC MYA 3626; CLSI M38-A2, RPMI 1640, 35°C, no visible growth after 48 h; triplicate
Experimental: as §1
Fungal strains were stored in 15% glycerol at −80°C until use. […]
The MICs of the yeast strains for PMB, PME, and octapeptin C4 and its derivatives were determined in accordance with CLSI M27-A2 guidelines using YNB (Becton Dickinson, USA) medium supplemented with 10 mM ammonium sulfate and 2% glucose, a final inoculum concentration of 1.5 × 10^3 to 2.0 × 10^3 cells/ml, and incubation at 35°C for 72 h ([39]). […] The MICs for PMB, PME, and octapeptin C4 for A. fumigatus were determined in accordance with the CLSI M38-A2 guidelines ([40]) using synthetic RPMI 1640 medium (with glutamine, without bicarbonate and with phenol red; Life Technologies, USA). […]

C. glabrata = test: Broth microdilution MIC; format: cell-based, Candida glabrata; details: ATCC 90030; CLSI M27-A2, YNB medium, 35°C, no visible growth after 48 h; triplicate
Experimental: as §1, §2, §3

common fungal pathogens = test: Broth microdilution MIC, panel of fungal pathogens; format: cell-based; details: highest concentration 100 μg/ml
Experimental: as §1
The MICs of the yeast strains for PMB, PME, and octapeptin C4 and its derivatives were determined in accordance with CLSI M27-A2 guidelines using YNB (Becton Dickinson, USA) medium supplemented with 10 mM ammonium sulfate and 2% glucose, a final inoculum concentration of 1.5 × 10^3 to 2.0 × 10^3 cells/ml, and incubation at 35°C for 72 h ([39]). […] The MICs for PMB, PME, and octapeptin C4 for A. fumigatus were determined in accordance with the CLSI M38-A2 guidelines ([40]) using synthetic RPMI 1640 medium (with glutamine, without bicarbonate and with phenol red; Life Technologies, USA). The final inoculum concentration was 0.4 × 10^4 to 5 × 10^4 cells/ml, with incubation at 35°C for 48 h. […] All assays were completed in triplicate. […]

C. neoformans H99 = details: for MIC C. neoformans H99: Table 1, CLSI M27-A2, YNB medium, 35°C, no visible growth after 72 h, triplicate; for MICs against various Cryptococcus strains: H99: H99, 72 h
Experimental: as §1, §2
(§4) The MICs of the yeast strains for PMB, PME, and octapeptin C4 and its derivatives were determined in accordance with CLSI M27-A2 guidelines using YNB (Becton Dickinson, USA) medium supplemented with 10 mM ammonium sulfate and 2% glucose, a final inoculum concentration of 1.5 × 10^3 to 2.0 × 10^3 cells/ml, and incubation at 35°C for 72 h ([39]). […] The MICs for PMB, PME, and octapeptin C4 for A. fumigatus were determined in accordance with the CLSI M38-A2 guidelines ([40]) using synthetic RPMI 1640 medium (with glutamine, without bicarbonate and with phenol red; Life Technologies, USA). The final inoculum concentration was 0.4 × 10^4 to 5 × 10^4 cells/ml, with incubation at 35°C for 48 h. […] All assays were completed in triplicate. Fluconazole was used as a positive control where the MIC was determined at both 50% growth (in accordance with CLSI M27-A2 guidelines) and when there was a “no visible growth” reading.

[1] = test system: capsule-induced or -suppressed C. neoformans H99 cells; test: In vitro time course assay of capsule influence; format: cell-based, Cryptococcus neoformans; details: PMB at 12.5 μM
Experimental: (A) C. neoformans grown on capsule inducing RPMI 1640 agar medium (without L-glutamine and sodium bicarbonate) with incubation at 37°C in 5% CO2 for 3 days. Scale bar, 20 μm. (B) C. neoformans grown on capsule-suppressing media, YPD containing 1 M NaCl at 30°C in ambient air for 3 days. […] The data represent the means of two replicates, and the error bars represent the standard errors of the mean (SEM).
Capsule induction of strain H99 was achieved as described by Zhai et al. ([37]) with growth on RPMI 1640 (without L-glutamine and sodium bicarbonate) (Sigma, Australia) agar medium and incubation at 37°C in 5% CO2 and capsule suppression by growth on YPD containing 1 M NaCl at 30°C in ambient air. After 3 days, the cells from each culture were collected, washed twice with phosphate-buffered saline (PBS), and resuspended in PBS to avoid changes in the capsule at a density of 1,500 to 2,000 cells/ml. Cell suspensions were treated with test compounds at the determined MIC value. The compounds tested were PMB sulfate, octapeptin C4, and the octapeptin C4 alanine scan derivatives P1L, P1D, P4, P3, P4L, P4D, P5, P6, P7, and P8. At 0, 1, 2, 4, 6, and 8 h after inoculation, samples from each treatment were spread onto a YPD plate, followed by incubation at 30°C for 3 days, at which time the colonies were counted. The assay was repeated in duplicate, and paired sample t tests were performed using GraphPad Prism v7.0 (GraphPad Software, USA).

[2] = test system: melanized and nonmelanized C. neoformans cells; test: In vitro time course assay of melanization effect; format: cell-based, Cryptococcus neoformans; details: melanin induced on L-DOPA agar vs suppressed on YPD agar; PMB at 12.5 μM, octapeptin C4 at 1.56 μM; 0-8 h; two replicates
Experimental: (A) Melanin suppressed C. neoformans. (B) Melanin induced C. neoformans. […] Samples from each flask were taken 0, 1, 2, 4, 6, and 8 h after inoculation, spread onto a YPD plate, and incubated at 30°C for 3 days, at which time the colonies were counted. The data represent the means of two replicates, and the error bars represent the SEM.
Melanization was induced by growth on L-DOPA agar medium at 30°C and suppressed by growth on YPD agar medium at 30°C. Cells were grown over 3 days and collected, washed twice in PBS, and then resuspended in PBS at a density of 1,500 to 2,000 cells/ml. Aliquots of the cells were treated with PMB sulfate, octapeptin C4, and the octapeptin C4 derivatives P1L, P1D, P4, P3, P4L, P4D, P5, P6, P7, and P8 at the determined MICs. At 0, 1, 2, 4, 6, and 8 h after inoculation, samples of the suspension were spread onto YPD agar and incubated at 30°C for 3 days, and the colonies were counted. The assay was repeated in duplicate, and paired sample t tests were performed in GraphPad Prism v7.0.

C. gattii MMRL 2651 = test system: C. gattii MMRL 2651
Experimental: as §1, §2, §4

C. neoformans ATCC 90113 = details: for MICs against various Cryptococcus strains: ATCC 90113: ATCC 90113, 72 h
Experimental: as §1, §2, §4

[3] = test system: C. neoformans H99 (cap59Δ); format: cell-based, Cryptococcus neoformans; details: triplicate; for MICs against various Cryptococcus strains: H99 (cap59Δ): Table 2, values consistent across replicates
Description: The different susceptibility of C. neoformans and C. gattii to PMB compared to other pathogenic fungi such as C. albicans and A. fumigatus has been postulated to arise from differences in cell surface composition ([38]). One key difference is the presence of a negatively charged polysaccharide capsule in Cryptococcus spp. proposed to concentrate the cationic lipopeptides at the cell surface ([38]). To examine this potential interaction for the octapeptin series, a C. neoformans cap59Δ mutant strain deficient in the secretion of negatively charged glucuronoxylomannan (an α1–3-linked mannan containing β1,2 and β1,4 xylosyl substitutions, as well as β1,2-linked glucuronyl residues) ([41], [42]), was tested against octapeptin C4 in comparison to PMB.
as §2, §4

| Molecule | MIC C. albicans (C. albicans) [µg/mL] | MIC C. parapsilosis (C. parapsilosis) [µg/mL] | MIC A. fumigatus (A. fumigatus) [µg/mL] | MIC C. glabrata (C. glabrata) [µg/mL] | MIC C. neoformans H99 (C. neoformans H99) [µg/mL] | MICs against various Cryptococcus strains: MMRL 2651 (C. gattii MMRL 2651; 72 h) [µg/mL] | MICs against various Cryptococcus strains: ATCC 90113 (C. neoformans ATCC 90113) [µg/mL] | MICs against various Cryptococcus strains: H99 (C. neoformans H99) [µg/mL] | MICs against various Cryptococcus strains: H99 (cap59Δ) [3] [µg/mL] | further results |
| --- | --- | --- | --- | --- | --- | --- | --- | --- | --- | --- |
| polymyxin E [PME] | >100 | >100 | >100 | >100 | 100 |  |  |  |  | antifungal activity against any of the species analyzed (common fungal pathogens): did not show significant antifungal activity |
| polymyxin B [PMB] | >100 | >100 | >100 | >100 | 12.5 |  |  |  |  | time to 50% reduction in viability, fungal cells with large capsule ([1]; H99, capsule induced on RPMI 1640 agar 37°C 5% CO2, cells in PBS, colony counts, two replicates): around 1 h; time to 50% reduction in viability, capsule suppressed fungal cells ([1]; H99, capsule suppressed on YPD with 1 M NaCl 30°C, relative to large capsule cells): five times longer; effect of capsule formation on fungicidal activity ([1]; H99, octapeptin C4 at 1.56 μM, 0-8 h, two replicates): enhanced the fungicidal effect; effect of melanization on fungicidal activity [2]: no difference in activity; MIC C. gattii (C. gattii MMRL 2651; Table 1, MMRL 2651, CLSI M27-A2, YNB medium, 35°C, 72 h, triplicate): 25.0 µg/mL; MIC C. neoformans ATCC 90113 (C. neoformans ATCC 90113; Table 1, CLSI M27-A2, YNB medium, 35°C, no visible growth after 72 h, triplicate): 12.5 µg/mL; MIC C. neoformans H99 (cap59Δ) ([3]; Table 1, CLSI M27-A2, YNB medium, 35°C, no visible growth after 72 h): 50 µg/mL |
| CCCCCCC[C@@H](O)CC(=O)N[C@H](CCN)C(=O)N[C@H]1CCNC(=O)[C@H](CC(C)C)NC(=O)[C@H](CCN)NC(=O)[C@H](CCN)NC(=O)[C@H](CC(C)C)NC(=O)[C@@H](C)NC(=O)[C@H](CCN)NC1=O [Compound P4D] ({Decanoyl(3R-OH)}-[dDab][Dab][Dab][dA]L[Dab][Dab]L; lactam 2-C) |  |  |  |  |  | 25.0 | 12.5 | 12.5 | 50.0 |  |
| CCCCCCC[C@@H](O)CC(=O)N[C@H](CCN)C(=O)N[C@H]1CCNC(=O)[C@H](CC(C)C)NC(=O)[C@H](CCN)NC(=O)[C@H](CCN)NC(=O)[C@H](C)NC(=O)[C@@H](Cc2ccccc2)NC(=O)[C@H](CCN)NC1=O [Compound P5] ({Decanoyl(3R-OH)}-[dDab][Dab][Dab][dF]A[Dab][Dab]L; lactam 2-C) |  |  |  |  |  | 25.0 | 12.5 | 12.5 | 50.0 |  |
| CCCCCCC[C@@H](O)CC(=O)N[C@H](CCN)C(=O)N[C@H]1CCNC(=O)[C@H](CC(C)C)NC(=O)[C@H](C)NC(=O)[C@H](CCN)NC(=O)[C@H](CC(C)C)NC(=O)[C@@H](Cc2ccccc2)NC(=O)[C@H](CCN)NC1=O [Compound P7] ({Decanoyl(3R-OH)}-[dDab][Dab][Dab][dF]L[Dab]AL; lactam 2-C) |  |  |  |  |  |  | 6.25 | 6.25 | 12.5 | MICs against various Cryptococcus strains: MMRL 2651 (C. gattii MMRL 2651; Table 2, C. gattii, triplicate, values consistent across replicates): 12.5 µg/mL |

Reference: paper PMC5786788, “Antimicrobial Octapeptin C4 Analogues Active against Cryptococcus Species” (Antimicrobial Agents and Chemotherapy, 2018)
